Source: ChEMBL document CHEMBL5375995, “Discovery and Mechanistic Study of Novel Mycobacterium tuberculosis ClpP1P2 Inhibitors” (J Med Chem, 2023)
Values after ≈ are worked out from the molar mass of the structure shown. Active and inactive are the calls of the source. The rule behind the calls is not given here.

Legend:
[1] = biological target: T1, ClpP1P2 (Mycobacterium tuberculosis (strain ATCC 25618 / H37Rv)) (UniProt P9WPC5+P9WPC3); test: Inhibition of N-terminal His6-SUMO-tagged Mtb ClpP1 (7 to 200 residues)/ClpP2 (13 to 214 residues) complex expressed in Escherichia coli BL21(DE3) using Z-Gly-Gly-Leu-AMC as substrate at 10 uM incubated for 40 mins in presence of Bz-LL by fluorescence based assay
ClpP1P2 [2] = biological target: T2, ClpP1P2 (Mycobacterium tuberculosis (strain ATCC 25618 / H37Rv), UniProt P9WPC3+P9WPC5); test: Inhibition of N-terminal His6-SUMO-tagged Mtb ClpP1 (7 to 200 residues)/ClpP2 (13 to 214 residues) complex expressed in Escherichia coli BL21(DE3) using Z-Gly-Gly-Leu-AMC as substrate measured for 60 mins in presence of Bz-LL by fluorescence based assay
[3] = test system: Mycobacterium tuberculosis; test: Antibacterial activity against Mycobacterium tuberculosis H37Ra assessed as bacterial growth inhibition incubated for 24 hrs by broth microdilution method; format: functional
ClpP1P2 [4] = biological target: T2, ClpP1P2; test: Inhibition of N-terminal His6-SUMO-tagged Mtb ClpP1 (7 to 200 residues)/ClpP2 (13 to 214 residues) complex expressed in Escherichia coli BL21(DE3) using FITC-casein as substrate measured for 1 hr in presence of Bz-LL/ATP by fluorescence based assay
[5] = biological target: T1, ClpP1P2 (Mycobacterium tuberculosis (strain ATCC 25618 / H37Rv)); test: Binding affinity to ClpP1 in Mtb H37Ra lysate at 5 mM incubated for 4 hrs by affinity based capture method; format: subcellular
Pseudomonas aeruginosa = test: Antibacterial activity against Pseudomonas aeruginosa assessed as bacterial growth inhibition incubated for 24 hrs by broth microdilution method; format: functional
[6] = test system: Mycolicibacterium smegmatis; test: Antibacterial activity against wild-type Mycobacterium smegmatis mc2 155 assessed as bacterial growth inhibition incubated for 2 days by Alamar blue staining based assay; format: functional; settings: mc2 155, 48 h, time 2 day
Staphylococcus aureus = test: Antibacterial activity against Staphylococcus aureus assessed as bacterial growth inhibition incubated for 24 hrs by broth microdilution method; format: functional
Escherichia coli = test: Antibacterial activity against Escherichia coli assessed as bacterial growth inhibition incubated for 24 hrs by broth microdilution method; format: functional
[7] = test system: Mycobacterium tuberculosis; test: Antibacterial activity against Mycobacterium tuberculosis H37Rv assessed as bacterial growth inhibition incubated for 24 hrs by broth microdilution method; format: functional
[8] = Inhibition of full-length Staphylococcus aureus ClpP complex expressed in Escherichia coli BL21(DE3) using Suc-LY-AMC as substrate measured for 60 mins in presence of Bz-LL by fluorescence based assay
[9] = test system: Mycolicibacterium smegmatis; test: Antibacterial activity against Mycobacterium smegmatis mc2 155 harboring ClpC1 knockout assessed as bacterial growth inhibition incubated for 2 days by Alamar blue staining based assay; format: functional; settings: mc2 155, 48 h, time 2 day
[10] = biological target: T1, ClpP1P2 (Mycobacterium tuberculosis (strain ATCC 25618 / H37Rv)); test: Inhibition of wild-type Mtb ClpP1 expressed in Escherichia coli BL21(DE3)
[11] = Selectivity index, ratio of IC50 for full-length Staphylococcus aureus ClpP complex expressed in Escherichia coli BL21(DE3) using Suc-LY-AMC as substrate to IC50 for N-terminal His6-SUMO-tagged Mtb ClpP1 (7 to 200 residues)/ClpP2 (13 to 214 residues) complex expressed in Escherichia coli BL21(DE3)
[12] = (§1) Selectivity index, ratio of IC50 for full-length human ClpP complex ([…]) expressed in Escherichia coli BL21(DE3) using FITC-casein as substrate to IC50 for N-terminal His6-SUMO-tagged Mtb ClpP1 (7 to 200 residues)/ClpP2 (13 to 214 residues) complex expressed in Escherichia coli BL21(DE3)
[13] = Inhibition of full-length human ClpP complex ([…]) expressed in Escherichia coli BL21(DE3) using Ac-WLA-AMC as substrate measured for 60 mins in presence of Bz-LL by fluorescence based assay
[14] = Inhibition of N-terminal His6-SUMO-tagged Mycobacterium smegmatis ClpP1 (3 to 200 residues)/P2 (17 to 218 residues) expressed in Escherichia coli BL21(DE3) using Z-Gly-Gly-Leu-AM as substrate measured for 60 mins in presence of Bz-LL by fluorescence based assay; set-up: species or system Mycolicibacterium smegmatis
[15] = Inhibition of full-length Mtb H37Rv ClpP complex expressed in Escherichia coli BL21(DE3) using FITC-casein as substrate measured for 1 hr in presence of Bz-LL/ATP by fluorescence based assay; set-up: species or system Mycobacterium tuberculosis
[16] = Inhibition of full-length Staphylococcus aureus ClpP complex/Escherichia coli ClpX delta N mutant (62 to 425 residues) expressed in Escherichia coli BL21(DE3) using FITC-casein as substrate measured for 1 hr in presence of Bz-LL/ATP by fluorescence based assay
[17] = biological target: ATP-dependent Clp protease ATP-binding subunit ClpC1 (Mycobacterium tuberculosis) (UniProt P9WPC9); test: Inhibition of N-terminal His6-tagged full-length Mtb ClpC1 creatine kinase activity expressed in Escherichia coli BL21(DE3) using creatine phosphate as substrate at 100 uM preincubated for 10 mins followed by substrate addition measured after 10 mins in presence of ADP by Kinase-Glo assay; settings: time 20.0 min
[18] = test system: Mycolicibacterium smegmatis; test: Antibacterial activity against Mycobacterium smegmatis mc2 155 harboring ClpX knockout assessed as bacterial growth inhibition incubated for 2 days by Alamar blue staining based assay; format: functional; settings: mc2 155, 48 h, time 2 day
[19] = Selectivity index, ratio of IC50 for Mtb H37Rv ClpP complex using Z-Gly-Gly-Leu-AMC as substrate to IC50 for N-terminal His6-SUMO-tagged Mtb ClpP1 (7 to 200 residues)/ClpP2 (13 to 214 residues) complex expressed in Escherichia coli BL21(DE3)
[20] = Inhibition of N-terminal His6-SUMO-tagged Mycobacterium smegmatis ClpP1 (3 to 200 residues)/P2 (17 to 218 residues) expressed in Escherichia coli BL21(DE3)/C1 using Z-Gly-Gly-Leu-AM as substrate measured for 60 mins in presence of Bz-LL by fluorescence based assay; set-up: species or system Mycolicibacterium smegmatis
[21] = Selectivity index, ratio of IC50 for full-length Mtb H37Rv ClpP complex expressed in Escherichia coli BL21(DE3) using FITC-casein as substrate to IC50 for N-terminal His6-SUMO-tagged Mtb ClpP1 (7 to 200 residues)/ClpP2 (13 to 214 residues) complex expressed in Escherichia coli BL21(DE3)
[22] = Selectivity index, ratio of IC50 for full-length Escherichia coli ClpP complex expressed in Escherichia coli BL21(DE3) using Suc-LY-AMC as substrate to IC50 for N-terminal His6-SUMO-tagged Mtb ClpP1 (7 to 200 residues)/ClpP2 (13 to 214 residues) complex expressed in Escherichia coli BL21(DE3)
[23] = Selectivity index, ratio of IC50 for full-length Pseudomonas aeruginosa ClpP1 expressed in Escherichia coli BL21(DE3) using Suc-LY-AMC as substrate to IC50 for N-terminal His6-SUMO-tagged Mtb ClpP1 (7 to 200 residues)/ClpP2 (13 to 214 residues) complex expressed in Escherichia coli BL21(DE3)
[24] = Inhibition of full-length human ClpP complex ([…]) expressed in Escherichia coli BL21(DE3) using FITC-casein as substrate measured for 1 hr in presence of Bz-LL/ONC212/ATP by fluorescence based assay
[25] = as §1, with “Ac-WLA-AMC” for “FITC-casein”
[26] = Inhibition of full-length Escherichia coli ClpP complex/Escherichia coli ClpX delta N mutant (62 to 425 residues) expressed in Escherichia coli BL21(DE3) using FITC-casein as substrate measured for 1 hr in presence of Bz-LL/ATP by fluorescence based assay
[27] = Inhibition of full-length Escherichia coli ClpP complex expressed in Escherichia coli BL21(DE3) using Suc-LY-AMC as substrate incubated for 60 mins in presence of Bz-LL by fluorescence based assay
[28] = Inhibition of full-length Pseudomonas aeruginosa ClpP1 expressed in Escherichia coli BL21(DE3) using Suc-LY-AMC as substrate measured for 60 mins in presence of Bz-LL by fluorescence based assay
ClpP1P2 [29] = biological target: T2, ClpP1P2; test: Binding affinity to N-terminal His6-SUMO-tagged Mtb ClpP1 (7 to 200 residues)/ClpP2 (13 to 214 residues) complex expressed in Escherichia coli BL21(DE3) assessed as increase in thermal stability measured at 25 to 110 degreeC in presence of Bz-LL by DSF assay
[30] = biological target: ATP-dependent Clp protease ATP-binding subunit ClpC1 (Mycobacterium tuberculosis) (UniProt P9WPC9); test: Inhibition of N-terminal His6-tagged full-length Mtb ClpC1 ATPase activity expressed in Escherichia coli BL21(DE3) at 100 uM in presence of PK/LDH/ATP/NADH by spectrophotometry

T2 sequence (P9WPC5 whole entry, the tested form may be a part): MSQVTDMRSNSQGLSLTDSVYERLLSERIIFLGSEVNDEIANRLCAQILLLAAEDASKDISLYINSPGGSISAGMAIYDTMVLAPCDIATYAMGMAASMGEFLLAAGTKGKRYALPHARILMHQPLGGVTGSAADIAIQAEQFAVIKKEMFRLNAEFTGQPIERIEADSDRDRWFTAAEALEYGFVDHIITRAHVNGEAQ
T2 sequence (P9WPC3 whole entry, the tested form may be a part): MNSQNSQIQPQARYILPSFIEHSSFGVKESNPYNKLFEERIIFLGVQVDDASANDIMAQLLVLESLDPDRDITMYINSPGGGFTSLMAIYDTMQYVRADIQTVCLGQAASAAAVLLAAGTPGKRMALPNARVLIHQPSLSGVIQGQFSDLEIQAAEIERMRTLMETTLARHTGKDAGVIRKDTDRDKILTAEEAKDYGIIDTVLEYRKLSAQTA
Sequence of ATP-dependent Clp protease ATP-binding subunit ClpC1 (Mycobacterium tuberculosis) (P9WPC9 whole entry): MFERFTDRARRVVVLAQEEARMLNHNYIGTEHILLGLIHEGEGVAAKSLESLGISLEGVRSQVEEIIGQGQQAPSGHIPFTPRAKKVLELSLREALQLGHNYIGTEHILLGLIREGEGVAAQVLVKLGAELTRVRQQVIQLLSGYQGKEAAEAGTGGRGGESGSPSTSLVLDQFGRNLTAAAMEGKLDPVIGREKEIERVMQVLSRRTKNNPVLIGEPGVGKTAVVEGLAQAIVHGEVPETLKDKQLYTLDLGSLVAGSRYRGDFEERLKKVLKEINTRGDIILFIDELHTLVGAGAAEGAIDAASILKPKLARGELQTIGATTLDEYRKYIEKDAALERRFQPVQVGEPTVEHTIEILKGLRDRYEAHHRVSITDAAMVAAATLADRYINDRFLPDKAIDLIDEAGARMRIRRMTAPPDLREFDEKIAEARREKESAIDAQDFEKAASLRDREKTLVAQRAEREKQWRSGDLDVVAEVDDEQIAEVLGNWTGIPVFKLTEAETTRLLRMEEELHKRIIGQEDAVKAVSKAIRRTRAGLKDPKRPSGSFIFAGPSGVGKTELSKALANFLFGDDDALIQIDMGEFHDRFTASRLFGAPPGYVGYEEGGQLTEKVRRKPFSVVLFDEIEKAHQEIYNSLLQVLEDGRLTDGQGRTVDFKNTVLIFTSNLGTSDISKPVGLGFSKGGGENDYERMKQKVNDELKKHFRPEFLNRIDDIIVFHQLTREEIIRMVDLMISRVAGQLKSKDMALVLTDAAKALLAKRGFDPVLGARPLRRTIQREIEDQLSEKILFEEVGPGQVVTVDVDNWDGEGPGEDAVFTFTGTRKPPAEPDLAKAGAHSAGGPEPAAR

Compound: Oc1c(Cl)cc(Cl)c(Cl)c1Cc1c(O)c(Cl)cc(Cl)c1Cl [HEXACHLOROPHENE]
- inhibition [1]: Active
- IC50 (ClpP1P2 [2]): 4.9 µM

Compound: COc1cc(C(=O)Nc2ccc3[nH]c(C)cc3c2F)ccc1OCCCN1CCCC1
- IC50 (ClpP1P2 [2]): 26.8 µM
- MIC [3]: > 94 µM
- IC50 (ClpP1P2 [4]): > 100 µM

Compound: COc1cc2c(Oc3ccc4[nH]c(C)cc4c3F)ncnc2cc1OCCCN1CCC[C@@H](N)C1
- Activity [5]: Active
- IC50 (ClpP1P2 [2]): 3.3 µM
- MIC [3]: 32 µM (≈ 15.3 µg/mL)
- IC50 (ClpP1P2 [4]): 19.1 µM

Compound: COc1cc2c(Oc3ccc4[nH]c(C)cc4c3F)ncnc2cc1OCCCCl
- IC50 (ClpP1P2 [2]): 49.2 µM
- MIC [3]: > 96.2 µM
- IC50 (ClpP1P2 [4]): > 100 µM

Compound: COc1cc2c(Oc3ccc4[nH]c(C)cc4c3F)ncnc2cc1O
- IC50 (ClpP1P2 [2]): 45.3 µM
- MIC [3]: > 118 µM
- IC50 (ClpP1P2 [4]): > 100 µM

Compound: CC(=O)NC[C@H]1CN(c2ccc(N3CCOCC3)c(F)c2)C(=O)O1 [LINEZOLID]
- MIC (Pseudomonas aeruginosa): > 379 µM
- MIC [6]: 5.9 µM (≈ 1.99 µg/mL)
- MIC (Staphylococcus aureus): 5.9 µM (≈ 1.99 µg/mL)
- MIC (Escherichia coli): > 379 µM
- MIC [7]: 0.2 µM (≈ 0.0675 µg/mL)
- MIC [3]: 0.2 µM (≈ 0.0675 µg/mL)

Compound: COc1cc2c(Oc3ccc4[nH]c(C)cc4c3F)ncnc2cc1OCCCN1CCCC1 [CEDIRANIB]
- MIC (Pseudomonas aeruginosa): > 226 µM
- inhibition [1]: Active
- IC50 [8]: > 500 µM
- MIC [9]: 56.4 µg/mL (≈ 125 µM)
- inhibition [10]: inactive
- MIC [6]: 113 µM (≈ 50.9 µg/mL)
- MIC (Staphylococcus aureus): > 226 µM
- Ratio IC50 [11]: > 170
- Ratio IC50 [12]: 11.3
- IC50 [13]: 37.5 µM
- IC50 (ClpP1P2 [2]): 2.8 µM
- IC50 [14]: 6.2 µM
- IC50 [15]: 24.2 µM
- IC50 [16]: 234 µM
- inhibition [17]: inactive
- MIC (Escherichia coli): > 226 µM
- MIC [18]: 56.4 µg/mL (≈ 125 µM)
- Ratio IC50 [19]: 1
- IC50 [20]: 43.9 µM
- Ratio IC50 [21]: 14.8
- MIC [7]: 28.2 µM (≈ 12.7 µg/mL)
- Ratio IC50 [22]: > 170
- Ratio IC50 [23]: > 170
- IC50 [24]: 273 µM
- Ratio IC50 [25]: 13.3
- IC50 [26]: 358 µM
- IC50 [27]: > 500 µM
- IC50 [28]: > 500 µM
- EC50 (ClpP1P2 [29]): 29 µM
- MIC [3]: 14.1 µM (≈ 6.35 µg/mL)
- IC50 (ClpP1P2 [4]): 45.1 µM
- inhibition [30]: inactive

Compound: COc1cc2c(Nc3ccc4[nH]c(C)cc4c3F)ncnc2cc1OCCCN1CCCC1
- IC50 (ClpP1P2 [2]): > 100 µM
- MIC [3]: > 89 µM
- IC50 (ClpP1P2 [4]): > 100 µM

Compound: COc1cc2c(Oc3ccc4cc[nH]c4c3)ncnc2cc1OCCCN1CCCC1
- IC50 (ClpP1P2 [2]): > 100 µM
- MIC [3]: > 95.6 µM
- IC50 (ClpP1P2 [4]): > 100 µM

Compound: Cc1cc2c(F)c(Oc3ncnn4cc(OC[C@@H](C)O)c(C)c34)ccc2[nH]1 [BRIVANIB]
- inhibition [1]: Active
- IC50 (ClpP1P2 [2]): 6.9 µM
- inhibition [17]: inactive
- IC50 (ClpP1P2 [4]): 24.2 µM
- inhibition [30]: inactive

Compound: CO[C@H]1/C=C/O[C@@]2(C)Oc3c(C)c(O)c4c(O)c(c(/C=N/N5CCN(C)CC5)c(O)c4c3C2=O)NC(=O)/C(C)=C\C=C\[C@H](C)[C@H](O)[C@@H](C)[C@@H](O)[C@@H](C)[C@H](OC(C)=O)[C@@H]1C [RIFAMPIN]
- MIC (Pseudomonas aeruginosa): 38.9 µM (≈ 32 µg/mL)
- MIC (Escherichia coli): 4.9 µM (≈ 4.03 µg/mL)

Compound: COc1cc2c(OC)ncnc2cc1OCCCN1CCCC1
- IC50 (ClpP1P2 [2]): > 100 µM
- MIC [3]: > 126 µM
- IC50 (ClpP1P2 [4]): > 100 µM
